The text below walks through data of patent publication US5132424A, “Pyrazolo-pyrrolo-pyrimidine-diones” (The Upjohn Company, priority 1991, dated 1992).

The subject of assay [1] is ACAT enzyme. Briefly: ACAT Inhibition Assay (inhibition of cholesterol esterification in cultured Fu5AH rat hepatoma cells). The settings on record: for % Inhib. of Chol. Esterf.: Fu5AH cells, 18 hours; for Activity: compared with chlorpromazine. It counts as cell-based. On the set-up: key to Activity: Active: Compounds with ACAT inhibiting activity equal to, or greater than, that of chloropromazine are declared active. The source says: A standard in vitro test system designed to identify compounds capable of inhibitory the ACAT enzyme in cultured Fu5AH rat hepatoma cells which was used to test the compounds of this invention, among others, is described hereinbelow.
Since the ACAT enzyme in Fu5AH cells is similar if not identical to the ACAT enzyme in arterial tissue in valuable, warm-blooded animals, including humans, the Fu5AH cell test represents a more efficient, simplified and economical means of screening for ACAT inhibitors than similar assays which depend upon the use of arterial tissue and arterial subfractions as the source of the ACAT enzyme.
For our in vitro test the Fu5AH rat hepatoma cell line was selected as our source of the ACAT enzyme since this particular cell line mimicked important characteristics of human and valuable animal arterial cells during the development of atherosclerosis. The Fu5AH cells accumulate cholesterol extensively when incubated with hyperlipemic plasma proteins; more importantly, Fu5HA cells accumulated the cholesterol predominantly as the esterified form through the action of the ACAT enzyme. See Rothblat, G. H., "Cholesteryl Ester Metabolism in Tissue Culture Cell. I. Accumulation in Fu5AH Rat Hepatoma Cells", Lipids, 9, (1974) page 526.
The Fu5AH cells used in our in vitro assay were first acquired from G. H. Rothblat, supra, of the Medical College of Pa.
The Fu5AH rat hepatoma cell-line was derived from the Reuber H-35 rat hepatoma. (See Reuber, M.D., "A Transplantable Bilesecreting Hepatocellular Carcinoa in the Rat", J. Natl., Cancer Inst., 26 (1961), page 891. The cell-line is maintained in Eagle's Minimal Essential Medium (MEM, GiBCO) supplemented with 5% bovine fetal calf serum. Incubation is at 36° C. in an atmosphere of 5% CO2 in air (Hotpack, Model 351922). Cells from stock cultures, grown to confluency in 25 cm^2 flasks (Falcon) containing 10 ml. medium, are detached with 0.25% trypsin in 1% ethylenediaminetetraacetic acid (EDTA) (Gibco), diluted 1:10 with MEM and mixed by agitation through a pipette which serves to disrupt the cellular clumps. Stock cultures are replenished with fresh medium at 3 to 4 day intervals.
One ml. aliquots of the diluted stock suspension described above are then transferred to 60 mm. dishes (Falcon) containing four ml. MEM and the seeded cells are allowed to grow to confluence (three days). At confluence, the medium is removed by aspiration and the cells are washed once with MEM. Five ml. of MEM supplemented with 5% hyperlipemic rabbit serum (HRS) (HRS is obtained from male New Zealane rabbits fed Purina Chow® rabbit feed supplemented with 1% cholesterol and 3% peanut oil (w/w/w/) for two to three weeks. Pooled sera from two or more rabbits are filtered through a 0.45 mμ filter (Nalgene) and stored frozen in convenient aliquots until used) and containing 1μ Ci/ml of ^3 H-cholesterol are then added to the dishes as the experimental (assay) medium. The experimental medium is labeled with 1,2-^3 H(N)-cholesterol (sp. act. approx. 40-60 Ci/mol, New Zealand Nuclear Corp.) prior to its addition to the confluent cultures and is prepared as follows. Five ml. of HRS is diluted with approximately 20 ml of MEM and the mixture is labeled by the addition of 100 μCi ^3 H-cholesterol dissolved in 100 μl absolute ethyl alcohol. The resulting mixture is then incubated for four hours at 36° C. to permit equilibration of the labeled cholesterol with the serum lipoprotein-cholesterol. After the equilibration period, the mixture is diluted to 100 ml. with MEM and used as the labeled assay medium. Following the addition of the labeled medium to the dishes, dimethylsulfoxide solutions of the test substances and the positive standard chloropromazine HCl (1 mg/ml) are added to the cultures in volumes of 25, 50, […]; control cultures receive equivalent volumes of dimethylsufoxide alone. […]

The subject of assay [2] is Moderately Hypercholesterolemic Quail. Briefly: In vivo testing in moderately hypercholesterolemic quail (serum LDL cholesterol). On the set-up: species or system Japanese quail. The settings on record: compound in diet, two weeks. From the text:
Male SEA Japanese quail, approximately four to six weeks of age, were reared at Miles Quail Farm, Gobles, Mich. from a colony of animals originally derived at The Upjohn Company. Birds were randomly distributed into ten groups of ten quail each. They were house individually in ten cage units and fed a commercial diet (Purina Game Bird Layena, Ralston Purina Co., St. Louis, Mo.) mixed with various amounts of cholesterol with and without 1% peanut oil. Compounds were mixed into 2.4 kg of the diet using a feed mixer (Hobard A-200) for twenty minutes. Control groups received normal diet. In one series of experiments birds were fed 0.5% cholesterol/1% peanut oil plus colestipol hydrochloride. After two weeks on the diets, each bird was bled from the right jugular vein and serum samples were obtained after low speed centrifugation. Food intake was determined for each group by subtracting the weight of diet remaining at the end of the experiment from the weight of the starting diet.
Beta- and alpha-lipoproteins were isolated from individual serum samples using PEG-8000 and glycerine buffer, pH 9 (9). Three hundred microliters of serum were mixed with 300 microliters of solution. A (20 grams of PEG-8000 plus 100 ml of glycerine buffer, pH 9) using a Micromedic automatic pipet. Samples were allowed to stand at room temperature for ten minutes and then were centrifuged for twenty minutes at 2000× g at 4° C. The beta-lipoprotein pellet was dissolved in 300 microliters of solution B (10 ml Triton X-100 plus 1000 ml Milli Q water). Cholesterol, triglycerides and total protein in alpha- and beta-lipoproteins were measured using the Deman Autoanalyzer, Model AU 500 (Cooper Biomedical Inc.) and Worthington Demand Enzymatic reagents.
All data were statistically analyzed using a one-way classification design. Values were transformed to logarithms to achieve more homogenous within-group variances. The mean response for each diet and for the effect was compared with the mean observed in the control animals by the LSD test. Treated/control ratios of antilogs of the log means are also presented.

The subject of assay [3] is ACAT enzyme. The settings on record: known drug; cited from earlier work.
Another assay has as its system membranes. The settings on record: known drug; cited from earlier work.
In assay [4] the test system is blood platelet aggregation. The settings on record: known drug; cited from earlier work.

For `C=CCCCCn1c2c(c(=O)n3nc(-c4ccccc4)cc13)CN(C1CCCCC1)C2=O` [Example 1, 6-Cyclohexyl-4-(5-hexenyl)-6,7-dihydro-2-phenyl-4H-pyrazolo[1,5-a]pyrrolo[3,4-d]pyrimidine-5,8-dione], the “% Inhib. of Chol. Esterf.” value is given as 68.6% with ACAT enzyme [1] (5.0 ug/ml), 93.2% in the assay with ACAT enzyme [1] (10.0 ug/ml) and 96.1% in the assay on ACAT enzyme [1] (15.0 ug/ml). In addition, the outcome in the assay with ACAT enzyme [1] (5.0 ug/ml), in the assay with ACAT enzyme [1] (10.0 ug/ml) and in the assay on ACAT enzyme [1] (15.0 ug/ml) was Active. Moreover, in assay [2], the “Percent Change in Serum LDL Cholesterol From Control” value (shortened to “Percent Change”) is reported as -42%.
For the compound `O=C1c2c(c(=O)n3nc(-c4ccccc4)cc3n2Cc2ccccc2)CN1C1CCCCC1` [Example 2, 6-Cyclohexyl-6,7-dihydro-2-phenyl-4-(phenylmethyl)-4H-pyrazolo[1,5-a]pyrrolo[3,4-d]pyrimidine-5,8-dione], the “% Inhib. of Chol. Esterf.” value amounted to 60.1% in the assay on ACAT enzyme [1] (5.0 ug/ml), 87.7% with ACAT enzyme [1] (10.0 ug/ml) and 93.6% with ACAT enzyme [1] (15.0 ug/ml). Moreover, the outcome with ACAT enzyme [1] (5.0 ug/ml), in the assay with ACAT enzyme [1] (10.0 ug/ml) and in the assay on ACAT enzyme [1] (15.0 ug/ml) was Active. Further, the “Percent Change” value in assay [2] is reported as -50%.
On to `O=C(Cn1c2c(c(=O)n3nc(-c4ccccc4)cc13)CN(C1CCCCC1)C2=O)c1ccccc1` [Example 4, 4-(Benzoylmethyl)-6-cyclohexyl-6,7-dihydro-2-phenyl-4H-pyrazolo[1,5-a]pyrrolo-[3,4-d]pyrimidine-5,8-dione], for which the “% Inhib. of Chol. Esterf.” value with ACAT enzyme [1] (5.0 ug/ml) is 88.6%; in the assay with ACAT enzyme [1] (10.0 ug/ml), 92.2%; in the assay with ACAT enzyme [1] (15.0 ug/ml) it was 91.9%. Also, the result in the assay with ACAT enzyme [1] (5.0 ug/ml), in the assay on ACAT enzyme [1] (10.0 ug/ml) and in the assay on ACAT enzyme [1] (15.0 ug/ml) was Active. Besides, the “potency for ACAT enzyme inhibition (in words)” value with ACAT enzyme [1] (among the compounds of Table I) was “most potent compound”. For the same compound, the “Percent Change” value in assay [2] is -59%.
Regarding `CN(C)CCCN1c2ccccc2Sc2ccc(Cl)cc21` [chlorpromazine], the “ACAT enzyme inhibition (in words)” value in the assay on ACAT enzyme [3] is on record as “ACAT enzyme inhibitor”. Besides, in the assay on membranes, the “change of membrane fluidity (in words)” value is given as “change the fluidity of membranes”. Further, the “blood platelet aggregation inhibition (in words)” value in assay [4] is listed as “blood platelet aggregation inhibition properties”.
